From publication PMC3744530, “CTA095, a Novel Etk and Src Dual Inhibitor, Induces Apoptosis in Prostate Cancer Cells and Overcomes Resistance to Src Inhibitors” (PLoS ONE, 2013)

Legend:
PC3-AZD20 cells = experiment: MTT cell viability in Src inhibitor resistant cells; type: cell-based, human; conditions: 72 h
Method: PC3 and PC3-AZD20 (PC3 cell resistant to 20 μM AZD0530, which is from AstraZeneca through MTA with Dr. Chris Evans) cells were seeded at 2000 cells/well in 96 well plates overnight. The cells were treated with AZD0530 or CTA095 at the indicated concentrations. Cell viability was measured using an MTT assay after 72 h.
Figure 11 CTA095 overcomes Src inhibitor resistance in prostate cancer cells. PC3 and PC3-AZD20 (PC3 cell resistant to 20 μM AZD0530) cells were seeded at 2000 cells/well in 96 well plates overnight. The cells were treated with AZD0530 or CTA095 at the indicated concentrations. Cell viability was measured using MTT assay after 72 h. Symbols, mean; bars, standard deviation, n = 3.

[1] = tested on: BCL2 mRNA in PC3-AZD20 cells; experiment: Real-time PCR of BCL2 mRNA; type: cell-based, human; conditions: PC3-AZD20, 10 μM, RT-PCR
Method: PC3-AZD20 cells were seeded at 10^6 cells/well in 6 well plates overnight. The cells were treated with AZD0530 or CTA095 at 10 μM. Apoptosis was analyzed using Annexin-V FITC apoptosis detection kit. The mRNA levels of Myc and BCL2 were measured using real-time PCR. pEtk, Etk, pSrc, Src, pStat3, Stat3, Myc and BCL2 levels were measured using the corresponding antibodies through a Western blot.
Figure 12 CTA095 induces apoptosis in Src inhibitor resistant prostate cancer cells through Myc and BCL2 inhibition. PC3-AZD20 (PC3 cell resistant to 20 μM AZD0530) cells were seeded at 10^6 cells/well in 6 well plates overnight. The cells were treated with AZD0530 or CTA095 at 10 μM. Apoptosis was analyzed using Annexin-V FITC apoptosis detection kit (A). The mRNA levels of Myc and BCL2 were measured using real-time PCR (B). pEtk, Etk, pSrc, Src, pStat3, Stat3, Myc and BCL2 levels were measured using the corresponding antibodies through Western blot (C). Columns, mean; bars, standard deviation, n = 3.

293 cells (Etk negative) = experiment: Annexin V-FITC apoptosis in 293 cells; type: cell-based; conditions: 24 h
Method: Supplementary file pone.0070910.s005.tif: Figure S5 Induction of apoptosis of 293 cells following treatment with CTA095. 293 cells were seeded at 10^6 cells/ml (2 ml) in a 6-well plate overnight and then treated with CTA095 at the indicated concentrations for 24 h. Apoptosis was analyzed using Annexin-V FITC apoptosis detection kit. Columns, mean; bars, standard deviation, n = 3. (TIF) Click here for additional data file.

Etk = biological target: T1, Etk (Homo sapiens, UniProt P51813); experiment: Kinase inhibition assay (TLC, 33P-ATP); type: biochemical; conditions: for IC50: Etk
T1 construct: purchased Millipore Inc (Dundee, UK)
T1 sequence (P51813 1-675): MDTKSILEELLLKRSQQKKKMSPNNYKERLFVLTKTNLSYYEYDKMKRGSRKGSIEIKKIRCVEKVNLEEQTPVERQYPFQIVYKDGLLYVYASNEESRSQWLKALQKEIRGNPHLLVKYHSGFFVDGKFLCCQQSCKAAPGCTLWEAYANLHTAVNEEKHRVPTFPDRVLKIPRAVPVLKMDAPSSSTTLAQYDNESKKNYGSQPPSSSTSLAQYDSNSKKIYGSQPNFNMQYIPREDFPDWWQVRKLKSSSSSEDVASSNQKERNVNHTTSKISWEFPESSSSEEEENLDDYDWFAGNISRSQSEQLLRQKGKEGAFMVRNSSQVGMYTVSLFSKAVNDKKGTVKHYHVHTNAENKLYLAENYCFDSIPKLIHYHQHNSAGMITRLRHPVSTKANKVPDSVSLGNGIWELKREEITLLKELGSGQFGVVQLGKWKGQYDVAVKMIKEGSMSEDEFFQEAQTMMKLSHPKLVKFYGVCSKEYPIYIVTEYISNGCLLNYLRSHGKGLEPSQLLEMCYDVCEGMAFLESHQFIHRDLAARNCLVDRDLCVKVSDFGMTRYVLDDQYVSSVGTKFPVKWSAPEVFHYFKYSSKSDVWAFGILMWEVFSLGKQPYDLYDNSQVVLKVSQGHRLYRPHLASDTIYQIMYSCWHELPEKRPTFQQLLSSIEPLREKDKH
Method: (§1) Kinase inhibition was measured using thin-layer-chromatography (TLC). Briefly, purified kinases (20 nM), the corresponding substrate (500 µM, TSFYGRH for Etk, YIYGSFK for the other kinases), and CTA095 (0–10 µM) were incubated in a kinase reaction (100 mM Hepes, pH 7.4, 10 mM MnCl2, 10 mM MgCl2, 1 mM DTT) for 5 min, and the reaction was started by adding 5 μCi ^33P-labeled ATP. The reaction (10 µl) was incubated at room temperature for 1 h and was stopped by adding 10 μL H3PO4. The radioactivity of the peptide substrate was analyzed using TLC as previously described.
(§2) Having isolated a small molecule that inhibits Etk, the next logical step was to determine its specificity for this enzyme. To accomplish this, purified Etk, Btk, Src and Yes were incubated in a kinase reaction buffer with CTA095 (0–1 μM) in the presence of ^33P-labeled ATP and a peptide (YIYGSFK), previously shown to be an excellent substrate for both BTK and Src family kinases. The kinase activity was measured using TLC technique.

Src = biological target: T2, Src (Homo sapiens, UniProt P12931); experiment: Kinase inhibition assay (TLC, 33P-ATP); type: biochemical
T2 construct: purchased Millipore Inc (Dundee, UK)
Method: as §1, §2

Yes = biological target: T3, Yes (Homo sapiens, UniProt P07947); experiment: Kinase inhibition assay (TLC, 33P-ATP); type: biochemical
T3 construct: purchased Millipore Inc (Dundee, UK)
Method: as §1, §2

[2] = tested on: Etk phosphorylation in PC3-Etk cells; experiment: Western blot of Etk phosphorylation in intact cells; type: cell-based, human; conditions: 5 μM and 10 μM, 24 h
Method: Western blotting was performed as described previously. Proteins were detected using the following antibodies: β-actin (Sigma-Aldrich, Saint Louis, MO), Etk (Santa Cruz Inc., Santa Cruz, CA), pEtk; Src, pSrc; Stat3, pStat3. For phospho-Etk, cells were pre-treated with 100 μM pervanadate for 15 min before harvest.
Figure 4 Inhibition of cell signaling in PC3 cells following treatment with CTA095. Cells were grown in 10 mm plate to 50% confluence and treated with CTA095. Cells were harvested after 24 h. pEtk, Etk, pSrc, Src, pStat3, Stat3, pAkt and Akt levels were measured using the corresponding antibodies by Western blot. One of three similar experiments depicted.

T2 sequence (P12931 whole entry): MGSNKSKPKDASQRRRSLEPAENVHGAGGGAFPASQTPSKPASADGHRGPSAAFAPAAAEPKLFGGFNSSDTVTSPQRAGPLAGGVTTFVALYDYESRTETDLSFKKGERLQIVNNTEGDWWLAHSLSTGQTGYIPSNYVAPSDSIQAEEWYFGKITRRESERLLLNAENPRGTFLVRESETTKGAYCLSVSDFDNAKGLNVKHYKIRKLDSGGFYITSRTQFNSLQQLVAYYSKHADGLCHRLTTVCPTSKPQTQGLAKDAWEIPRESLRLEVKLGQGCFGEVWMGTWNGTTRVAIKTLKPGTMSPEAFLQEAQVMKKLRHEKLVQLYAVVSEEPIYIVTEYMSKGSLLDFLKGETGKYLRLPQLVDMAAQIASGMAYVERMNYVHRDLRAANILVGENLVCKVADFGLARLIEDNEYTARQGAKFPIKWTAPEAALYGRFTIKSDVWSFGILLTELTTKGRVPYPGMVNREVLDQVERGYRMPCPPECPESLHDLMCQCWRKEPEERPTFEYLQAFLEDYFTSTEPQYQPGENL
T3 sequence (P07947 whole entry): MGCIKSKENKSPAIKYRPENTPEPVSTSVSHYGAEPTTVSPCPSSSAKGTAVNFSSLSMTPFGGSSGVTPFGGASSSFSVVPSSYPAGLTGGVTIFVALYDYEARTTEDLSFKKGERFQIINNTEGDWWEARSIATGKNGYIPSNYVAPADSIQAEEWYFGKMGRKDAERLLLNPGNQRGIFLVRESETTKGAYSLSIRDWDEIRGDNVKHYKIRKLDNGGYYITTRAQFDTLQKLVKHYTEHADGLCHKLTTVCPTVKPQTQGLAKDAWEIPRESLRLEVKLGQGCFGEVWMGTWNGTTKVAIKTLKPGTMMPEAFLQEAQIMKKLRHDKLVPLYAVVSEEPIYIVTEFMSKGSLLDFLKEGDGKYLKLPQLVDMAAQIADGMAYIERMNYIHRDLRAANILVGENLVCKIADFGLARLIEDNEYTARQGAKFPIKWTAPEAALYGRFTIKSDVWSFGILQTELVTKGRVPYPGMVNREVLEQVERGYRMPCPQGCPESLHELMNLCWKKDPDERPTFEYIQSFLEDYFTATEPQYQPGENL

- IC50 (Etk; TLC assay): 60 nM
- IC50 (Etk; TLC, peptide YIYGSFK, 33P-ATP): ~60 nM
- Etk inhibition (Etk; compound 1 μM, Etk 20 nM, compared with other CT compounds): significant Etk inhibition
- IC50 (Src; TLC assay): 120 nM
- IC50 (Src; TLC, peptide YIYGSFK, 33P-ATP): ~120 nM
- IC50 (Yes): > 10000 nM
SMILES: O=c1[nH]c2cc3nc(-c4ccc5oc6ccccc6c5c4)n(CCCN4CCCCC4)c3cc2nc1-c1ccccc1 [CTA095, 2-(dibenzo[b,d]furan-2-yl)-7-phenyl-1-(3-(piperidin-1-yl)propyl)-1H-imidazo[4,5-g]quinoxalin-6(5H)-one]
- IC50 in PC3-AZD20 cells (PC3-AZD20 cells): almost identical to that of the parental PC3 cells
- cell viability / sensitivity of PC3-AZD20 cells (PC3-AZD20 cells): highly sensitive
- BCL2 mRNA level [1]: significantly down regulated
- induction of apoptosis (293 cells (Etk negative)): resistant to induce apoptosis
- Etk phosphorylation [2]: significantly inhibited
